Measurements as given in paper PMC3582512, “Application of a Novel Microtitre Plate-Based Assay for the Discovery of New Inhibitors of DNA Gyrase and DNA Topoisomerase VI” (PLoS ONE, 2013).
“Also recorded” adds a separate entry of the source.

How the values were obtained:
[1] = molecular target: T1, S. shibatae topo VI (Saccharolobus shibatae, UniProt O05207+O05208); experiment: Protection from ADPNP-induced, S. shibatae topo VI-mediated DNA cleavage; format: biochemical, Sulfolobus shibatae
T1 construct: gift from Danielle Gadelle (University of Paris XI, Orsay)
T1 sequence (O05207 whole entry): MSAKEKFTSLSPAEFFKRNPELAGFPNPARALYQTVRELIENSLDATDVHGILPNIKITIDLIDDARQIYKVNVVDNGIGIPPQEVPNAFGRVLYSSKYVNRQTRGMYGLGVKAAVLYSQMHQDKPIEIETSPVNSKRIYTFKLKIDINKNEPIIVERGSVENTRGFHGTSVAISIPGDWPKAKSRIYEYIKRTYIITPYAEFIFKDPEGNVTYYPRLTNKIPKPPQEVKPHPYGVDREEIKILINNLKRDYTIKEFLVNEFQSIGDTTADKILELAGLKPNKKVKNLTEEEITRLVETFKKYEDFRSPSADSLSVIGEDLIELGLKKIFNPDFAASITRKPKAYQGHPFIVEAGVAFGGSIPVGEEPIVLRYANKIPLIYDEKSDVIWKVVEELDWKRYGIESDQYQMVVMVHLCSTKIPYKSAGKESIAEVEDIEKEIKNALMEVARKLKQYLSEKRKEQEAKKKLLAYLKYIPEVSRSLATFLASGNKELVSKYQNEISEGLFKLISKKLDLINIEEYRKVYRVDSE
T1 sequence (O05208 whole entry): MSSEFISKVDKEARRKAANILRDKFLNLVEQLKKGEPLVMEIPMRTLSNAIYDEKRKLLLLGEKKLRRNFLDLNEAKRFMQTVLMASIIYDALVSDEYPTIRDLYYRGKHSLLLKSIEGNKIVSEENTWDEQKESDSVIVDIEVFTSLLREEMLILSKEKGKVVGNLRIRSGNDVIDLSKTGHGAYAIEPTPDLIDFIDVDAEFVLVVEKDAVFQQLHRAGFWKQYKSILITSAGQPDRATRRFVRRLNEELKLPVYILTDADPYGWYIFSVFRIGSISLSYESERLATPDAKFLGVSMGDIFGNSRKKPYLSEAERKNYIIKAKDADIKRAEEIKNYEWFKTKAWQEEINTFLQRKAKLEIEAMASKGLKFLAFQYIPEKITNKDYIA
Method: (§1) Assays to detect the stabilisation of cleavage complexes were identical to the protocol for topoisomerase activity detailed above, except as follows. Cleavage experiments with DNA gyrase were carried out in the absence of ATP and spermidine and 30 µL reactions were stopped with 3 µL 10% SDS and incubated with 3 µL 1 mg/mL proteinase K solution at 37°C for 1 h. For cleavage complex protection assays with suramin, the reaction buffer was modified to contain 4 mM CaCl2 rather than MgCl2.

[2] = molecular target: T2, M. mazei topo VI (Methanosarcina mazei, UniProt Q8PUB7+Q8PUB8); experiment: Agarose gel-based DNA relaxation assay; format: biochemical; details: for IC50: gel relaxation assay, 1 unit (50 nM) topo VI, read-out: Approx. IC50 against M. mazei topo VI; for Mechanism (Topo VI): summary of mechanistic tests with M. mazei and S. shibatae topo VI
T2 construct: His tag; made in house
T2 sequence (Q8PUB8 whole entry): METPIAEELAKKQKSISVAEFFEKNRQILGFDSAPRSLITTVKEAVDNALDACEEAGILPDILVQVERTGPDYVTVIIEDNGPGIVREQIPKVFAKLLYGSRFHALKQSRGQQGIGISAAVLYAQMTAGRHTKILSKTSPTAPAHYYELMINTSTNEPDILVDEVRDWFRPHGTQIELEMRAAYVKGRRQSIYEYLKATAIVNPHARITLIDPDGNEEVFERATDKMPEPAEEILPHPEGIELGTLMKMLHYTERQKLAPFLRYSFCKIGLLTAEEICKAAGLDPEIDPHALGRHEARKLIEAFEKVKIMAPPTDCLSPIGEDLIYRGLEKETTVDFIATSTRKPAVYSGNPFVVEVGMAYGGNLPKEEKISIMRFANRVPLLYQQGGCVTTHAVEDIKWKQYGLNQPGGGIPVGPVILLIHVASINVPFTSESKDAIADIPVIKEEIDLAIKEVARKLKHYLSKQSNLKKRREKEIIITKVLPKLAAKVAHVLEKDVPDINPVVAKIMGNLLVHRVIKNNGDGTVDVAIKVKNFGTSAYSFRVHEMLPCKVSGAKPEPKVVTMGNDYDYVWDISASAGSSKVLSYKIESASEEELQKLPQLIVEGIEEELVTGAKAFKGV
T2 sequence (Q8PUB7 whole entry): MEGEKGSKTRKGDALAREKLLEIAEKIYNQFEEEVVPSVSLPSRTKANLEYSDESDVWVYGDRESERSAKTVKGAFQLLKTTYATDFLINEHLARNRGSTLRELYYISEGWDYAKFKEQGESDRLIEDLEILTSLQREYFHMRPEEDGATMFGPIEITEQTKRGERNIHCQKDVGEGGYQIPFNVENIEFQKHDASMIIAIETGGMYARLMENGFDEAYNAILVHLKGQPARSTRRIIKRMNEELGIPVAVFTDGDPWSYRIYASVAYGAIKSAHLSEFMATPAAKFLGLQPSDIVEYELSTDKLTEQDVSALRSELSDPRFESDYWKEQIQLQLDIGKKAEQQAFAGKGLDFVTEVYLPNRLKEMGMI
Method: (§2) The agarose gel-based assay was conducted as previously described, [44], [62]. In brief, topoisomerases were incubated with 0.5 µg of plasmid and the desired concentration of compound for 30 min at 37°C (for DNA gyrase and M. mazei topo VI) or 5 min at 75°C (for S. shibatae topo VI), in a total volume of 30 µL. […] Reactions were stopped by the addition of a loading buffer containing EDTA and the drug extracted by vortexing with either chloroform or aqueous butanol as required. In the case of M. mazei topo VI, it was necessary to include SDS in the loading buffer, at a final concentration of 1%. Samples were loaded onto a 1% agarose gel, run for the appropriate length of time and stained with ethidium bromide before visualisation on a UV transilluminator.

[3] = molecular target: T3, E. coli DNA gyrase (Escherichia coli, UniProt P0AES4+P0AES6); experiment: DNA triplex-based microtitre plate screen, gyrase supercoiling; format: biochemical; details: 25 µM compound, duplicate
T3 construct: made in house
T3 sequence (P0AES4 whole entry, one chain of several): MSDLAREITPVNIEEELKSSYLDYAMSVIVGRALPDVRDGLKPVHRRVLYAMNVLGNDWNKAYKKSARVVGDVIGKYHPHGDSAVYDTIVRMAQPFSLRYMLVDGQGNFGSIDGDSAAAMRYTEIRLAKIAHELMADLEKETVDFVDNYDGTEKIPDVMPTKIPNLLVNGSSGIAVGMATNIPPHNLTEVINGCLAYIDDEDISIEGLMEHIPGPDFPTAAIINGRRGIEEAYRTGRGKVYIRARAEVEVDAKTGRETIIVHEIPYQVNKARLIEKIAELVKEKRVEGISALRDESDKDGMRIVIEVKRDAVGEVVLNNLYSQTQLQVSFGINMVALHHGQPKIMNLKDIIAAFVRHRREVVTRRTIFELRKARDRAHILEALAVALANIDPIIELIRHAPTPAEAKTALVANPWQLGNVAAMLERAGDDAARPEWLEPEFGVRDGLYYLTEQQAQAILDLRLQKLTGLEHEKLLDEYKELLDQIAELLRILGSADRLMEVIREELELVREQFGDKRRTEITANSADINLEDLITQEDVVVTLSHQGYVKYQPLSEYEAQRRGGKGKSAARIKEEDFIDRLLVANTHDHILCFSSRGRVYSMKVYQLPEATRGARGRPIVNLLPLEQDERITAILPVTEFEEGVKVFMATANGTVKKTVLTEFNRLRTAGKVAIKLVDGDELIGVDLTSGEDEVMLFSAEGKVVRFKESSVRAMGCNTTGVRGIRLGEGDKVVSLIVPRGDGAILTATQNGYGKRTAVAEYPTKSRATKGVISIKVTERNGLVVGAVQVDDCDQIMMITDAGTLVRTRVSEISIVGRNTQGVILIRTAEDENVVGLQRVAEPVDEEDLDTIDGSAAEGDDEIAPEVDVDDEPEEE
Method: The triplex-based assay was conducted as previously described [45]–[47]. In brief, oligonucleotide TFO1 was immobilised onto a streptavidin-coated microtitre plate. Excess oligonucleotide was removed by washing with buffer. […] The reaction was stopped by the addition of a low pH, high salt buffer and triplex formation was allowed to occur for 30 min at room temperature. The DNA retained on the plate was stained with SYBR Gold (Sigma) dye and the fluorescence readings for each well read in a SpectraMax Gemini fluorimeter (Molecular Devices).
Twelve plates were screened in duplicate over three days manually using a multichannel pipette as previously described. […] Each plate contained 16 control reactions: eight positive for enzyme activity, which contained enzyme but no library compounds, and eight negative for enzyme activity, which lacked both enzyme and library compounds. All controls were carried out with 5% DMSO.

[4] = molecular target: T3, E. coli DNA gyrase; details: not studied further in this paper; cited from earlier work
[5] = tested on: E. coli MG1655; experiment: Bacterial growth inhibition; format: cell-based, Escherichia coli; details: liquid and solid media
Method: (§3) For E. coli work, 10 mL cultures of E. coli MG1655 or NR698 were grown overnight at 37°C in LB medium. A 100 µL sample was then added to 10 mL of LB medium containing the desired concentration of compound. The culture was then allowed to grow at 37°C for 5 h and its OD600 measured every hour. For M. smegmatis, a 50 mL culture was grown for 48 h in Middlebrooks 7H11 medium at 37°C. A 100 µL sample was then added to 10 mL of Middlebrooks 7H11 containing the desired concentration of compound. The culture was then allowed to grow at 37°C for 9 h and its OD600 measured every three hours. For colony counting experiments M. smegmatis was grown for 48 h in 50 mL of Middlebrooks 7H9 medium at 37°C. A 100 µL sample was then added to 10 mL of Middlebrooks 7H9 medium containing the desired concentration test compound and allowed to grow at 37°C overnight. After 16 h, 20 µL samples were taken from these cultures and diluted 1 in 10,000 with Middlebrooks 7H9 medium. Petri dishes containing Middlebrooks 7H11 agar were prepared and 100 µL of each diluted culture was spread out. The plates were subsequently stored at 4°C. This was repeated every three hours for six hours, after which the plates were transferred to 37°C for 48 h. The numbers of colonies for each time point were counted manually.

[6] = molecular target: T3, E. coli DNA gyrase; experiment: Agarose gel-based DNA supercoiling assay; format: biochemical
Method: as §2

[7] = tested on: M. smegmatis mc^2155; experiment: Bacterial growth inhibition and colony counting; format: cell-based, Mycobacterium smegmatis
Method: as §3

[8] = molecular target: T3, E. coli DNA gyrase; experiment: Gel-based gyrase-mediated DNA cleavage assay; format: biochemical; details: absence of ATP
Method: as §1

[9] = tested on: E. coli strain NR698; experiment: Bacterial growth inhibition, membrane-permeable strain; format: cell-based, Escherichia coli; details: liquid and solid media
Method: as §3

[10] = molecular target: T4, M. mazei DNA topoisomerase VI (Methanosarcina mazei, UniProt Q8PUB7+Q8PUB8); experiment: DNA triplex-based microtitre plate screen, topo VI relaxation; format: biochemical; details: 25 µM compound, duplicate
T4 construct: His tag; made in house
T4 sequence (Q8PUB8 whole entry): as the sequence (Q8PUB8 whole entry) above
T4 sequence (Q8PUB7 whole entry): as the sequence (Q8PUB7 whole entry) above
Method: The triplex-based assay was conducted as previously described [45]–[47]. In brief, oligonucleotide TFO1 was immobilised onto a streptavidin-coated microtitre plate. Excess oligonucleotide was removed by washing with buffer. Topoisomerase reactions were carried out in a 30 μL reaction volume containing 1–2 units topoisomerase and 1 μg relaxed or negatively supercoiled pNO1 under the published reaction conditions, [47]; gyrase supercoiling: 35 mM Tris•HCl (pH 7.5), 24 mM KCl, 4 mM MgCl2, 2 mM DTT, 1.8 mM spermidine, 1 mM ATP, 6.5% (w/v) glycerol, 0.1 mg/mL bovine serum albumin; topo VI relaxation: 20 mM bis-tris propane (pH 6.5), 100 mM potassium glutamate, 10 mM MgCl2, 1 mM DTT, 1 mM ATP. […] The DNA retained on the plate was stained with SYBR Gold (Sigma) dye and the fluorescence readings for each well read in a SpectraMax Gemini fluorimeter (Molecular Devices).
Twelve plates were screened in duplicate over three days manually using a multichannel pipette as previously described. […] Once the data had been collected from the screen, the fluorescence signals for the duplicates were averaged and converted into percentage inhibition using the positive and negative controls. […] To analyse the degree of separation between a negative and positive result the Z' factor [51] for the assay was calculated from the data for the control reactions (Equation 1). […]

[11] = molecular target: T2, M. mazei topo VI; experiment: Native gel shift assay, topo VI binding to 147 bp DNA fragment
Method: In order to test the effects of hit compounds upon DNA binding by topoisomerases, samples of enzyme and drug were prepared under the following conditions in a final volume of 10 μL: 1 nM 147 bp linear fragment of DNA derived from pBR322, [82] 50 mM Tris•HCl (pH 7.5), 100 mM KCl, 5 mM MgCl2, 2 mM DTT, 10% w/v glycerol. Samples were incubated for 30 min at room temperature before being run on a 5% (29:1) Protogel acrylamide (National Diagnostics) gel in 90 mM Tris·Borate, 5 mM MgCl2 at 150 V for 45 min. The DNA was stained by soaking in 2 µg/mL ethidium bromide for 10 min and visualised under UV light.

Nc1c2ccccc2nc2ccccc12 [9-Aminoacridne, 9-aminoacridine]
Prevention of ADPNP-induced DNA cleavage by S. shibatae topo VI [1]: appeared to prevent ADPNP-induced cleavage
Inhibition in gel-based relaxation assay (hit validation) [2]: validated as hits
IC50 [2]: 6 µM
Mechanism (Topo VI) [2]: Prevents DNA cleavage

C[n+]1c2cc(N)ccc2cc2ccc(N)cc21 [Acriflavinium]
Outcome in gyrase screen (hit threshold 25% inhibition) [3]: scored over the hit threshold
Mechanism (DNA gyrase), already characterised inhibitors [4]: ATPase inhibitor

O=C(O)c1cn(C2CC2)c2cc(N3CCNCC3)c(F)cc2c1=O [Ciprofloxacin]
Mechanism (DNA gyrase), already characterised inhibitors [4]: Fluoroquinolone cleavage-complex stabiliser

COc1c(N2CCNC(C)C2)c(F)cc2c(=O)c(C(=O)O)cn(C3CC3)c12 (stereo not drawn) [Gatifloxacin]
Mechanism (DNA gyrase), already characterised inhibitors [4]: Fluoroquinolone cleavage-complex stabiliser

C[C@H]1COc2c(N3CCN(C)CC3)c(F)cc3c(=O)c(C(=O)O)cn1c23 [Levofloxacin]
Mechanism (DNA gyrase), already characterised inhibitors [4]: Fluoroquinolone cleavage-complex stabiliser

CCn1cc(C(=O)O)c(=O)c2cc(F)c(N3CCNC(C)C3)c(F)c21 (stereo not drawn) [Lomefloxacin]
Mechanism (DNA gyrase), already characterised inhibitors [4]: Fluoroquinolone cleavage-complex stabiliser

O=C1c2c(O)ccc(O)c2C(=O)c2c(NCCNCCO)ccc(NCCNCCO)c21 [Mitoxantrone]
Prevention of ADPNP-induced DNA cleavage by S. shibatae topo VI [1]: appeared to prevent ADPNP-induced cleavage
Inhibition of growth / antimicrobial activity [5]: no inhibition of growth
Inhibition in gel-based supercoiling assay (hit validation) [6]: displayed inhibition
IC50 ([6]; gel supercoiling assay, 1 unit of gyrase (12 nM), read-out: Approx. IC50 against E. coli DNA gyrase): 12 µM
Mechanism (DNA gyrase) ([6]; summary of this study's mechanistic tests): Cleavage-complex stabiliser
Colony count relative to absence of drug ([7]; 65 μM, grown in liquid media then plated onto drug-free agar): 2%
Inhibition of growth ([7]; liquid broth / liquid cultures): strongly inhibited the growth; also recorded: found to inhibit the growth
Inhibition in gel-based relaxation assay (hit validation) [2]: found to inhibit M. mazei topo VI
IC50 [2]: 2 µM
Mechanism (Topo VI) [2]: Prevents cleavage
Induction of gyrase-mediated DNA cleavage ([8]; 10 µM): strongly induced DNA cleavage
Ability to stabilise the gyrase cleavage complex ([8]; 100 µM): reduced
Inhibition of growth / antimicrobial activity [9]: no inhibition of growth
Outcome in topo VI screen (hit threshold 25% inhibition) [10]: missed during the initial screen

COc1c(N2C[C@@H]3CCCN[C@@H]3C2)c(F)cc2c(=O)c(C(=O)O)cn(C3CC3)c12 [Moxifloxacin]
Mechanism (DNA gyrase), already characterised inhibitors [4]: Fluoroquinolone cleavage-complex stabiliser

CCn1cc(C(=O)O)c(=O)c2cc(F)c(N3CCNCC3)cc21 [Norfloxacin]
Mechanism (DNA gyrase), already characterised inhibitors [4]: Fluoroquinolone cleavage-complex stabiliser

CC1COc2c(N3CCN(C)CC3)c(F)cc3c(=O)c(C(=O)O)cn1c23 (stereo not drawn) [Ofloxacin]
Mechanism (DNA gyrase), already characterised inhibitors [4]: Fluoroquinolone cleavage-complex stabiliser

CCn1cc(C(=O)O)c(=O)c2cc(F)c(N3CCN(C)CC3)cc21.CS(=O)(=O)O [Perfloxacine Mesylate]
Mechanism (DNA gyrase), already characterised inhibitors [4]: Fluoroquinolone cleavage-complex stabiliser

O=C1c2ccccc2C(=O)c2c(O)c(O)cc(O)c21 [Purpurin]
Prevention of ADPNP-induced DNA cleavage by S. shibatae topo VI [1]: marked ability to reduce the amount of cleavage
Effect on binding of M. mazei topo VI to DNA [11]: appeared to prevent the binding of topo VI to DNA; also recorded: appeared to prevent G-segment binding
Inhibition in gel-based relaxation assay (hit validation) [2]: validated as hits
IC50 [2]: 40 µM
Mechanism (Topo VI) [2]: Blocks DNA binding

CCN(CC)CCCC(C)Nc1c2ccc(Cl)cc2nc2ccc(OC)cc12 (stereo not drawn) [Quinacrine]
Prevention of ADPNP-induced DNA cleavage by S. shibatae topo VI [1]: appeared to prevent ADPNP-induced cleavage
Inhibition in gel-based relaxation assay (hit validation) [2]: validated as hits
IC50 [2]: 8 µM
Mechanism (Topo VI) [2]: Prevents DNA cleavage

O=C(O)c1cn(-c2ccc(F)cc2)c2cc(N3CCNCC3)c(F)cc2c1=O [Surafloxacin]
Mechanism (DNA gyrase), already characterised inhibitors [4]: Fluoroquinolone cleavage-complex stabiliser

CCn1nc(C(=O)O)c(=O)c2cc3c(cc21)OCO3 [cinoxacin]
Outcome in gyrase screen (hit threshold 25% inhibition) [3]: missed by the screen

CCn1cc(C(=O)O)c(=O)c2cc(F)c(N3CCNCC3)nc21 [enoxacin]
Outcome in gyrase screen (hit threshold 25% inhibition) [3]: missed by the screen

COc1cc(NS(C)(=O)=O)ccc1Nc1c2ccccc2nc2ccccc12 [m-Amsacrine]
Inhibition in gel-based relaxation assay (hit validation) [2]: validated as hits
IC50 [2]: 30 µM
Mechanism (Topo VI) [2]: Prevents DNA cleavage

CCn1cc(C(=O)O)c(=O)c2ccc(C)nc21 [nalidixic acid]
Outcome in gyrase screen (hit threshold 25% inhibition) [3]: missed by the screen

CCn1cc(C(=O)O)c(=O)c2cc3c(cc21)OCO3 [oxolinic acid]
Outcome in gyrase screen (hit threshold 25% inhibition) [3]: missed by the screen
